Patent US12612386B2, “Heteroaryl-triazole compounds as pesticides” (Bayer Aktiengesellschaft, priority 2020, dated 2026)

What was measured:
Format in all cases: in vivo
[1] = tested on: fall armyworm larvae (Spodoptera frugiperda); assay: whole plant or invertebrate; details: 168 h
Procedure, shortened: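 Maize leaf sections sprayed with compound in acetone/DMF with alkylarylpolyglycol ether emulsifier diluted in water, then infested with fall armyworm larvae once dry. Mortality (%) scored after 7 days; 100% = all caterpillars killed.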

[2] = tested on: larvae of the southern green stink bug (Nezara viridula); assay: whole plant or invertebrate; details: 96 h
Procedure, shortened: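 Compound in acetone/DMF was diluted in water with 1000 ppm alkylarylpolyglycol ether emulsifier. Barley plants were sprayed with it, then infested with Nezara viridula larvae. Mortality % was scored after 4 days (100% = all killed).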

[3] = tested on: adult cat fleas (Ctenocephalides felis); assay: Ctenocephalides felis in-vitro contact test, adult cat flea; details: 5 μg/cm^2 (=500 g/ha), after 48 hours
Procedure: Ctenocephalides felis—In-Vitro Contact Tests Adult Cat Flea
(§1) 9 mg compound is solved in 1 mL acetone and diluted with acetone to the desired concentration. 250 μL of the test solution is filled in 25 mL glass test tubes and homogeneously distributed on the inner walls by rotation and tilting on a shaking device (2 h at 30 rpm). With a compound concentration of 900 ppm, an inner surface of 44.7 cm^2 and a homogeneous distribution, a dose of 5 μg/cm^2 is achieved.
After the solvent has evaporated, each test tube is filled with 5-10 adult cat fleas (Ctenocephalides felis), closed with a perforated lid and incubated in a lying position at room temperature and relative humidity. After 48 hours efficacy is determined. The fleas are patted on the ground of the tubes and are incubated on a heating plate at 45-50° C. for at most 5 minutes. Immotile or uncoordinated moving fleas, which are not able to escape the heat by climbing upwards, are marked as dead or moribund.
An efficacy of 100% means all fleas are dead or moribund; 0% means no fleas are dead or moribund.

[4] = tested on: cattle tick larvae (Rhipicephalus microplus), strain Parkhurst, resistant against synthetic pyrethroids; assay: Rhipicephalus (Boophilus) microplus in-vitro contact test, larval cattle tick; details: 5 μg/cm^2 (=500 g/ha), after 48 hours
Procedure: Rhipicephalus (Boophilus) Microplus—In-Vitro Contact Tests Larval Cattle Tick (Strain Parkhurst, Resistant Against Synthetic Pyrethroids)
as §1
After the solvent has evaporated, each test tube is filled with 20-50 cattle tick larvae (Rhipicephalus microplus), closed with a perforated lid and incubated in a horizontal position at 85% relative humidity and 27° C. in an incubator. After 48 hours efficacy is determined. The larvae are patted on the ground of the tubes and negative geotactic behavior is recorded.
An efficacy of 100% means all larvae are dead or moribund; 0% means no larvae are dead or moribund.

[5] = tested on: larvae of the banded cucumber beetle (Diabrotica balteata); assay: Diabrotica balteata spray test; details: 168 h, 100 g/ha (=32 μg/well), after 7 days, read-out: efficacy (seedling growth)
Procedure, shortened: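 Germinated wheat seeds on agar (5 per well) were sprayed with compound formulated in acetone/DMF and diluted in water with 1000 ppm emulsifier. Each unit was then infested with 10–20 larvae. Efficacy % was scored after 7 days as seedling growth relative to an untreated, uninfested control (100% = normal growth).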

[6] = tested on: adult brown dog ticks (Rhipicephalus sanguineus); assay: Rhipicephalus sanguineus in-vitro contact test, adult brown dog ticks; details: 48 h, read-out: efficacy (ticks dead or moribund)
Procedure: Rhipicephalus sanguineus—In-Vitro Contact Tests with Adult Brown Dog Ticks
as §1
After the solvent has evaporated, each test tube is filled with 5-10 adult brown dog ticks (Rhipicephalus sanguineus), closed with a perforated lid and incubated in a lying position at room temperature and relative humidity. After 48 hours efficacy is determined. The ticks are patted on the ground of the tubes and are incubated on a heating plate at 45-50° C. for at most 5 minutes. Immotile or uncoordinated moving ticks, which are not able to escape the heat by climbing upwards, are marked as dead or moribund.
An efficacy of 100% means all ticks are dead or moribund; 0% means no ticks are dead or moribund.

[7] = tested on: green peach aphid (Myzus persicae); assay: Myzus persicae spray test (MYZUPE); details: 120 h, 100 g/ha, after 5 days
Procedure, shortened: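 Chinese cabbage leaf disks infested with all instars of Myzus persicae were sprayed with compound formulated in acetone/dimethylformamide and diluted in water with 1000 ppm alkylarylpolyglycol ether emulsifier. Percent mortality was scored after 5 days, 100% meaning all aphids killed.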

[8] = tested on: brown planthopper (Nilaparvata lugens); assay: Nilaparvata lugens spray test; details: 96 h
Procedure, shortened: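 Rice plants (Oryza sativa) sprayed with compound formulated in acetone/DMF with alkylarylpolyglycol ether emulsifier (1000 ppm in diluting water), then infested with planthoppers. Mortality (%) scored after 4 days; 100% = all insects killed, 0% = none killed.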

Row | Structure (SMILES) | mortality at 100 g/ha [1] [%] | mortality at 500 g/ha [2] [%] | efficacy (fleas dead or moribund) [3] [%] | efficacy (larvae dead or moribund) [4] [%] | pest or weed control at 32 µg/disc, 100 g/ha [5] [%] | pest or weed control at 5 µg/cm2, 500 g/ha [6] [%] | mortality at 100 g/ha [7] [%] | mortality at 500 g/ha [8] [%]
1 | C[C@H](NC(=O)c1cc(Cl)cc(OC(F)(F)F)c1)c1ncnn1-c1cc(C#N)ncn1 [I-18] | 100 | 100 | 90 | 100 | 100 | 100 | 90 | 
2 | CCN(C)C(=O)c1cc(-n2ncnc2[C@H](C)NC(=O)c2cc(C(F)(F)F)cc(C(F)(F)F)c2)ncn1 [I-64] | 100 | 100 | 100 | 100 | 100 | 100 | 90 | 100
3 | Cc1nc([C@H](C)NC(=O)c2cc(OC(F)F)cc(OC(F)F)c2)n(-c2cc(C(N)=O)ncn2)n1 [I-98] | 100 | 100 | 100 | 100 | 100 | 100 | 100 | 
4 | Cc1nc([C@H](C)NC(=O)c2cc(C(F)(F)F)cc(C(F)(F)F)c2)n(-c2cc(C(=O)N(C)CC3CC3)ncn2)n1 [I-75] | 100 | 100 | 100 | 100 | 100 | 100 |  | 100
5 | Cc1nc([C@H](C)NC(=O)c2cc(Cl)cc(OC(F)(F)F)c2)n(-c2cc(C(N)=O)ncn2)n1 [I-85] | 100 | 100 | 100 | 100 | 100 | 100 | 100 | 90
6 | C[C@H](NC(=O)c1cc(OC(F)F)cc(OC(F)(F)F)c1)c1ncnn1-c1cc(C(N)=O)ncn1 [I-141] | 100 | 100 | 100 | 100 | 100 | 100 | 90 | 100
7 | C[C@H](NC(=O)c1cc(Cl)cc(Cl)c1)c1ncnn1-c1cc(C(N)=O)ncn1 [I-69] | 100 | 100 | 100 | 100 | 100 | 100 | 70 | 
8 | Cc1nc([C@H](C)NC(=O)c2cc(Br)cc(OC(F)F)c2)n(-c2cc(C(N)=O)ncn2)n1 [I-89] | 100 | 100 | 100 | 100 | 100 | 100 | 100 | 
9 | CCN(C)C(=O)c1cc(-n2nc(C)nc2[C@H](C)NC(=O)c2cc(C(F)(F)F)cc(C(F)(F)F)c2)ncn1 [I-63] | 100 |  | 100 | 100 | 100 | 100 |  | 100
10 | C[C@H](NC(=O)c1cc(C(F)(F)F)cc(C(F)(F)F)c1)c1ncnn1-c1cc(C(=O)N(C)CC2CC2)ncn1 [I-76] | 100 | 100 | 100 | 100 | 100 | 100 |  | 100
11 | C[C@H](NC(=O)c1cc(F)cc(OC(F)(F)F)c1)c1ncnn1-c1cc(C(N)=O)ncn1 [I-80] | 100 | 100 | 100 | 100 | 100 | 100 | 100 | 100
12 | Cc1nc([C@H](C)NC(=O)c2cc(Cl)cc(Cl)c2)n(-c2cc(C(N)=O)ncn2)n1 [I-95] | 100 | 100 | 100 | 100 | 100 | 100 | 90 | 
13 | CNC(=O)c1cc(-n2nc(C)nc2[C@H](C)NC(=O)c2cc(Br)cc(OC(F)(F)F)c2)ncn1 [I-65] | 100 | 100 | 100 | 100 | 100 | 100 | 90 | 
14 | CNC(=O)c1cc(-n2nc(C)nc2[C@H](C)NC(=O)c2cc(Cl)cc(OC(F)(F)F)c2)ncn1 [I-87] | 100 | 100 | 100 | 100 | 100 | 100 | 100 | 
15 | C[C@H](NC(=O)c1cccc(OC(F)(F)F)c1)c1ncnn1-c1cc(C(N)=O)ncn1 [I-50] | 100 |  | 100 | 100 | 100 | 100 | 90 | 100
16 | CC(C)N(C)C(=O)c1cc(-n2ncnc2[C@H](C)NC(=O)c2cc(OC(F)(F)F)cc(C3CC3)c2)ncn1 [I-57] | 100 |  | 100 | 100 |  | 100 |  | 100
